Structures are written as SMILES.

In this test the test system is MV-4-11 cells. Put plainly: Gene expression microarray analysis (Affymetrix PrimeView) and GSEA. The class given is cell-based, human. Also on record: RFU PODN (11730768_x_at) / Fold change /veh PODN (11730768_x_at) / RFU LINC00158 (11744669_a_at) / Fold change /veh LINC00158 (11744669_a_at) / RFU DUSP10 (11751237_a_at) / Fold change /veh DUSP10 (11751237_a_at) / RFU ID3 (11757404_x_at) / Fold change /veh ID3 (11757404_x_at) / RFU PLEKHG5 (11737974_s_at) / Fold change /veh PLEKHG5 (11737974_s_at) / RFU LRRC4B (11730491_at) / Fold change /veh LRRC4B (11730491_at) / RFU GIMAP4 (11747438_a_at) / Fold change /veh GIMAP4 (11747438_a_at) / RFU KRT8 (11758183_x_at) / Fold change /veh KRT8 (11758183_x_at) / RFU CNN1 (11734310_a_at) / Fold change /veh CNN1 (11734310_a_at) / RFU VPS37D (11726825_at) / Fold change /veh VPS37D (11726825_at) / RFU C10orf10 (11716522_x_at) / Fold change /veh C10orf10 (11716522_x_at) / RFU KIR2DL2 /// KIR2DL4 /// KIR2DL5A /// KIR2DL5B /// KIR2DS1 /// KIR2DS2 /// KIR2DS3 /// KIR2DS4 /// KIR3DL3 /// KIR3DL3 /// KIR3DS1 (11738374_at) / Fold change /veh KIR2DL2 /// KIR2DL4 /// KIR2DL5A /// KIR2DL5B /// KIR2DS1 /// KIR2DS2 /// KIR2DS3 /// KIR2DS4 /// KIR3DL3 /// KIR3DL3 /// KIR3DS1 (11738374_at) / RFU C1QL1 (11718748_at) / Fold change /veh C1QL1 (11718748_at) / RFU TMPRSS4 (11747572_a_at) / Fold change /veh TMPRSS4 (11747572_a_at) / RFU HAMP (11756126_x_at) / Fold change /veh HAMP (11756126_x_at) / RFU RNFT2 (11725882_a_at) / Fold change /veh RNFT2 (11725882_a_at) / RFU NR4A2 (11747474_a_at) / Fold change /veh NR4A2 (11747474_a_at) / RFU ABCC12 (11746883_a_at) / Fold change /veh ABCC12 (11746883_a_at) / RFU TMEM136 (11760407_x_at) / Fold change /veh TMEM136 (11760407_x_at) / RFU CLDN22 /// WWC2 (11732394_at) / Fold change /veh CLDN22 /// WWC2 (11732394_at) / RFU HLA-DPB1 (11760878_x_at) / Fold change /veh HLA-DPB1 (11760878_x_at) / RFU SPINT1 (11716480_a_at) / Fold change /veh SPINT1 (11716480_a_at) / RFU GAP43 (11754022_s_at) / Fold change /veh GAP43 (11754022_s_at) / RFU A4GNT (11735810_at) / Fold change /veh A4GNT (11735810_at) / RFU PRB3 (11715151_x_at) / Fold change /veh PRB3 (11715151_x_at) / RFU TUBB4B (11761932_at) / Fold change /veh TUBB4B (11761932_at) / RFU CAPN14 (11732068_a_at) / Fold change /veh CAPN14 (11732068_a_at) / RFU TMCC2 (11721928_a_at) / Fold change /veh TMCC2 (11721928_a_at) / RFU IRGQ (11745062_a_at) / Fold change /veh IRGQ (11745062_a_at) / RFU FAM174B (11720279_a_at) / Fold change /veh FAM174B (11720279_a_at) / RFU TMPRSS4 (11748680_a_at) / Fold change /veh TMPRSS4 (11748680_a_at) / RFU FAM212B (11763350_a_at) / Fold change /veh FAM212B (11763350_a_at) / RFU PLEKHG5 (11743358_a_at) / Fold change /veh PLEKHG5 (11743358_a_at) / RFU ZSCAN30 (11745921_a_at) / Fold change /veh ZSCAN30 (11745921_a_at) / RFU CMKLR1 (11741424_a_at) / Fold change /veh CMKLR1 (11741424_a_at) / RFU LOC101060620 /// MAPK8IP1 (11723275_at) / Fold change /veh LOC101060620 /// MAPK8IP1 (11723275_at) / RFU SPTSSB (11747773_x_at) / Fold change /veh SPTSSB (11747773_x_at) / RFU PRSS12 (11739890_at) / Fold change /veh PRSS12 (11739890_at) / RFU BIN1 (11741810_x_at) / Fold change /veh BIN1 (11741810_x_at) / RFU WNT11 (11732464_a_at) / Fold change /veh WNT11 (11732464_a_at) / RFU C10orf10 (11716521_a_at) / Fold change /veh C10orf10 (11716521_a_at) / RFU C5orf56 (11738089_at) / Fold change /veh C5orf56 (11738089_at) / RFU CYB561 (11721691_x_at) / Fold change /veh CYB561 (11721691_x_at) / RFU ANKRD19P (11752326_a_at) / Fold change /veh ANKRD19P (11752326_a_at) / RFU OR2T12 /// OR2T33 /// OR2T8 (11738714_s_at) / Fold change /veh OR2T12 /// OR2T33 /// OR2T8 (11738714_s_at) / RFU VCAN (11748164_a_at) / Fold change /veh VCAN (11748164_a_at) / RFU JSRP1 (11732532_at) / Fold change /veh JSRP1 (11732532_at) / RFU KRTAP10-11 (11738290_x_at) / Fold change /veh KRTAP10-11 (11738290_x_at) / RFU MYO3A (11730013_a_at) / Fold change /veh MYO3A (11730013_a_at) / RFU EBF3 (11725865_a_at) / Fold change /veh EBF3 (11725865_a_at) / RFU CAMK2N1 (11719241_x_at) / Fold change /veh CAMK2N1 (11719241_x_at) / RFU C5orf56 (11738088_a_at) / Fold change /veh C5orf56 (11738088_a_at) / RFU OLFML3 (11715873_a_at) / Fold change /veh OLFML3 (11715873_a_at) / RFU LOC100653217 /// NTM (11731650_a_at) / Fold change /veh LOC100653217 /// NTM (11731650_a_at) / RFU MAPK11 (11762145_a_at) / Fold change /veh MAPK11 (11762145_a_at) / RFU FIZ1 (11724087_x_at) / Fold change /veh FIZ1 (11724087_x_at) / RFU OASL (11726364_x_at) / Fold change /veh OASL (11726364_x_at) / RFU SOX15 (11748057_x_at) / Fold change /veh SOX15 (11748057_x_at) / RFU CD79A (11719716_a_at) / Fold change /veh CD79A (11719716_a_at) / RFU HIST1H1D (11736915_at) / Fold change /veh HIST1H1D (11736915_at) / RFU CASKIN2 (11723855_a_at) / Fold change /veh CASKIN2 (11723855_a_at) / RFU LOC730098 (11760151_x_at) / Fold change /veh LOC730098 (11760151_x_at) / RFU OR4N2 (11742367_at) / Fold change /veh OR4N2 (11742367_at) / RFU PRRT2 (11749266_a_at) / Fold change /veh PRRT2 (11749266_a_at) / RFU SNX32 (11753110_a_at) / Fold change /veh SNX32 (11753110_a_at) / RFU CDHR5 (11726645_a_at) / Fold change /veh CDHR5 (11726645_a_at) / RFU RCAN1 (11760418_a_at) / Fold change /veh RCAN1 (11760418_a_at) / RFU FAM167A (11723789_a_at) / Fold change /veh FAM167A (11723789_a_at) / RFU FAM26E (11764081_at) / Fold change /veh FAM26E (11764081_at) / RFU ISYNA1 (11749810_s_at) / Fold change /veh ISYNA1 (11749810_s_at) / RFU ACY1 (11761880_at) / Fold change /veh ACY1 (11761880_at) / RFU 11764098_at / Fold change /veh 11764098_at / RFU SAMD14 (11745864_x_at) / Fold change /veh SAMD14 (11745864_x_at) / RFU NPB (11741838_a_at) / Fold change /veh NPB (11741838_a_at) / RFU TMPRSS6 (11731388_a_at) / Fold change /veh TMPRSS6 (11731388_a_at) / RFU KRTAP10-2 (11738614_at) / Fold change /veh KRTAP10-2 (11738614_at) / RFU ARHGAP8 /// PRR5-ARHGAP8 (11727945_x_at) / Fold change /veh ARHGAP8 /// PRR5-ARHGAP8 (11727945_x_at) / RFU KRTAP5-7 /// NADSYN1 (11734609_at) / Fold change /veh KRTAP5-7 /// NADSYN1 (11734609_at) / RFU RASL12 (11751679_a_at) / Fold change /veh RASL12 (11751679_a_at) / RFU CDKN2B (11736163_a_at) / Fold change /veh CDKN2B (11736163_a_at) / RFU PRF1 (11729649_at) / Fold change /veh PRF1 (11729649_at) / RFU, ZNF638 /// ZNF638-IT1 / Fold change vs veh, ZNF638 /// ZNF638-IT1 / RFU, PANK3 / Fold change vs veh, PANK3 / RFU, SH3YL1 / Fold change vs veh, SH3YL1 / RFU, ZEB2 / Fold change vs veh, ZEB2 / RFU, NRIP1 / Fold change vs veh, NRIP1 / RFU, PTTG1IP / Fold change vs veh, PTTG1IP / RFU, CAPN2 / Fold change vs veh, CAPN2 / RFU, MED14 / Fold change vs veh, MED14 / RFU, SNORA58 / Fold change vs veh, SNORA58 / RFU, C1orf63 / Fold change vs veh, C1orf63 / RFU, LRRFIP1 / Fold change vs veh, LRRFIP1 / RFU, NDUFAF7 / Fold change vs veh, NDUFAF7 / RFU, SLC12A2 / Fold change vs veh, SLC12A2 / RFU, IBTK / Fold change vs veh, IBTK / RFU, ESF1 / Fold change vs veh, ESF1 / Fold change vs veh, TMEM50B / RFU, TAOK1 / Fold change vs veh, TAOK1 / RFU, ACBD3 / Fold change vs veh, ACBD3 / RFU, TMA16 / Fold change vs veh, TMA16 / RFU, RWDD3 / Fold change vs veh, RWDD3 / RFU, BCAT1 / Fold change vs veh, BCAT1 / RFU, EDEM3 / Fold change vs veh, EDEM3 / RFU, TMEM33 / Fold change vs veh, TMEM33 / RFU, WDR75 / Fold change vs veh, WDR75 / RFU, AHCTF1 / Fold change vs veh, AHCTF1 / RFU, TFRC / Fold change vs veh, TFRC / RFU, ZDHHC17 / Fold change vs veh, ZDHHC17 / RFU, NOM1 / Fold change vs veh, NOM1 / RFU, ARL8B / Fold change vs veh, ARL8B / RFU, ZBTB11 / Fold change vs veh, ZBTB11 / RFU, TAMM41 / Fold change vs veh, TAMM41 / RFU, KIAA1704 /// LOC100996395 / Fold change vs veh, KIAA1704 /// LOC100996395 / RFU, ING1 / Fold change vs veh, ING1 / RFU, TRMT61B / Fold change vs veh, TRMT61B / RFU, FUBP3 / Fold change vs veh, FUBP3 / RFU, TP53 / Fold change vs veh, TP53 / RFU, TNKS2 / Fold change vs veh, TNKS2 / RFU, ZFP14 / Fold change vs veh, ZFP14 / RFU, ACTR2 / Fold change vs veh, ACTR2 / RFU, PPP3R1 / Fold change vs veh, PPP3R1 / RFU, PIK3R1 / Fold change vs veh, PIK3R1 / RFU, HNRNPA1 / Fold change vs veh, HNRNPA1 / RFU, RNF170 / Fold change vs veh, RNF170 / RFU, ZNF28 / Fold change vs veh, ZNF28 / RFU, RNGTT / Fold change vs veh, RNGTT / RFU, OGT / Fold change vs veh, OGT / RFU, BRD1 / Fold change vs veh, BRD1 / RFU, MARS / Fold change vs veh, MARS / RFU, ZNF655 / Fold change vs veh, ZNF655 / RFU, FAHD1 / Fold change vs veh, FAHD1 / RFU, BDP1 / Fold change vs veh, BDP1 / RFU, LRRCC1 / Fold change vs veh, LRRCC1 / RFU, ARID1A / Fold change vs veh, ARID1A / RFU, ZNF146 / Fold change vs veh, ZNF146 / RFU, ZNF330 / Fold change vs veh, ZNF330 / RFU, GPN3 / Fold change vs veh, GPN3 / RFU, C9orf123 / Fold change vs veh, C9orf123 / RFU, N4BP2L2 / Fold change vs veh, N4BP2L2 / RFU, ARFIP1 / Fold change vs veh, ARFIP1 / RFU, FAM179B / Fold change vs veh, FAM179B / RFU, BCL10 / Fold change vs veh, BCL10 / RFU, UHRF1BP1L / Fold change vs veh, UHRF1BP1L / RFU, BET1 / Fold change vs veh, BET1 / RFU, CNOT2 / Fold change vs veh, CNOT2 / RFU, ZNF268 / Fold change vs veh, ZNF268 / Fold change vs veh, ZNF507 / RFU, DGCR2 / Fold change vs veh, DGCR2 / RFU, WDSUB1 / Fold change vs veh, WDSUB1 / Fold change vs veh, HSP90B1 /// MIR3652 / RFU, ADSS / Fold change vs veh, ADSS / RFU, GK / Fold change vs veh, GK / RFU, ZNF148 / Fold change vs veh, ZNF148 / RFU, TAF9 / Fold change vs veh, TAF9 / RFU, SLC1A5 / Fold change vs veh, SLC1A5 / RFU, SLMO2 / Fold change vs veh, SLMO2 / RFU, ABCC4 / Fold change vs veh, ABCC4 / RFU, LOC101060439 /// RAP1B / Fold change vs veh, LOC101060439 /// RAP1B / RFU, RFX7 / Fold change vs veh, RFX7 / RFU, GTPBP10 / Fold change vs veh, GTPBP10 / RFU, CNEP1R1 / Fold change vs veh, CNEP1R1 / RFU, BIVM-ERCC5 /// ERCC5 / Fold change vs veh, BIVM-ERCC5 /// ERCC5 / RFU, ILF3 / Fold change vs veh, ILF3 / RFU 11762660_at / Fold change /veh 11762660_at / RFU VCAN (11757783_s_at) / Fold change /veh VCAN (11757783_s_at) / RFU DDX43 (11728927_at) / Fold change /veh DDX43 (11728927_at) / RFU KRT8 (11758188_x_at) / Fold change /veh KRT8 (11758188_x_at) / RFU NKD1 (11759106_at) / Fold change /veh NKD1 (11759106_at) / RFU SRD5A1 (11742802_a_at) / Fold change /veh SRD5A1 (11742802_a_at) / RFU TPSAB1 /// TPSB2 (11721975_s_at) / Fold change /veh TPSAB1 /// TPSB2 (11721975_s_at) / RFU GSTM3 (11746129_a_at) / Fold change /veh GSTM3 (11746129_a_at) / RFU IL23R (11737362_x_at) / Fold change /veh IL23R (11737362_x_at) / RFU TMEM51 (11727254_a_at) / Fold change /veh TMEM51 (11727254_a_at) / RFU PIWIL2 (11732686_x_at) / Fold change /veh PIWIL2 (11732686_x_at) / RFU ORM1 (11744905_x_at) / Fold change /veh ORM1 (11744905_x_at) / RFU CCDC152 (11743942_at) / Fold change /veh CCDC152 (11743942_at) / RFU ECM1 (11717891_a_at) / Fold change /veh ECM1 (11717891_a_at) / RFU IL23R (11748794_a_at) / Fold change /veh IL23R (11748794_a_at) / RFU TNFAIP8L3 (11732012_x_at) / Fold change /veh TNFAIP8L3 (11732012_x_at) / RFU MBOAT4 (11741988_at) / Fold change /veh MBOAT4 (11741988_at) / RFU 11764193_at / Fold change /veh 11764193_at / RFU TMEM53 (11763286_at) / Fold change /veh TMEM53 (11763286_at) / RFU MAGEB2 (11727129_at) / Fold change /veh MAGEB2 (11727129_at) / RFU TMEM200A (11744735_a_at) / Fold change /veh TMEM200A (11744735_a_at) / RFU CCDC152 (11751479_a_at) / Fold change /veh CCDC152 (11751479_a_at) / RFU FAM211A (11726209_a_at) / Fold change /veh FAM211A (11726209_a_at) / RFU RGS16 (11746705_a_at) / Fold change /veh RGS16 (11746705_a_at) / RFU VCAN (11755009_s_at) / Fold change /veh VCAN (11755009_s_at) / RFU RHOB (11743442_s_at) / Fold change /veh RHOB (11743442_s_at) / RFU RGS16 (11720943_a_at) / Fold change /veh RGS16 (11720943_a_at) / RFU RGS16 (11720944_at) / Fold change /veh RGS16 (11720944_at) / RFU, VPS4B / Fold change vs veh, VPS4B / RFU, CREB1 / Fold change vs veh, CREB1 / RFU, DNAJC13 / Fold change vs veh, DNAJC13 / RFU, GNAQ / Fold change vs veh, GNAQ / RFU, CDK5R1 / Fold change vs veh, CDK5R1 / RFU, ZRANB3 / Fold change vs veh, ZRANB3 / RFU, CUL4A / Fold change vs veh, CUL4A / RFU, CCNY / Fold change vs veh, CCNY / RFU, UFL1 / Fold change vs veh, UFL1 / RFU, COG3 / Fold change vs veh, COG3 / RFU, DIAPH2 / Fold change vs veh, DIAPH2 / RFU, SKA2 / Fold change vs veh, SKA2 / RFU, AFF3 / Fold change vs veh, AFF3 / RFU, LMF1 / Fold change vs veh, LMF1 / RFU, IPO11 / Fold change vs veh, IPO11 / RFU, DFFB / Fold change vs veh, DFFB / RFU, FOXP1 / Fold change vs veh, FOXP1 / RFU, CARD8 / Fold change vs veh, CARD8 / RFU, STRN3 / Fold change vs veh, STRN3 / RFU, ADK / Fold change vs veh, ADK / RFU, RASSF2 / Fold change vs veh, RASSF2 / RFU, WIPF1 / Fold change vs veh, WIPF1 / RFU, LARP1B / Fold change vs veh, LARP1B / RFU, RASA1 / Fold change vs veh, RASA1 / RFU, RB1 / Fold change vs veh, RB1 / RFU, PPFIA1 / Fold change vs veh, PPFIA1 / RFU, MAT2A / Fold change vs veh, MAT2A / RFU, CCT5 / Fold change vs veh, CCT5 / RFU, WDR92 / Fold change vs veh, WDR92 / RFU, CUX1 / Fold change vs veh, CUX1 / RFU, TTC7A / Fold change vs veh, TTC7A / RFU, TMEM135 / Fold change vs veh, TMEM135 / RFU, DEPTOR / Fold change vs veh, DEPTOR / RFU, CPM / Fold change vs veh, CPM / RFU, DNAJB6 / Fold change vs veh, DNAJB6 / RFU, CACNA2D3 / Fold change vs veh, CACNA2D3 / RFU, DTX4 / Fold change vs veh, DTX4 / RFU, TFCP2 / Fold change vs veh, TFCP2 / RFU, GMCL1 /// GMCL1P1 / Fold change vs veh, GMCL1 /// GMCL1P1 / RFU, AEBP2 / Fold change vs veh, AEBP2 / RFU, SNHG1 /// SNORD22 /// SNORD25 /// SNORD26 /// SNORD27 /// SNORD28 /// SNORD29 /// SNORD31 / Fold change vs veh, SNHG1 /// SNORD22 /// SNORD25 /// SNORD26 /// SNORD27 /// SNORD28 /// SNORD29 /// SNORD31 / Fold change (Aza/veh), C12orf56 (ProbeSet 11735607_a_at) / Fold change (ACY-1035/veh), C12orf56 (ProbeSet 11735607_a_at) / Fold change (Aza/veh), FGFR1OP (ProbeSet 11751329_s_at) / Fold change (ACY-1035/veh), FGFR1OP (ProbeSet 11751329_s_at) / Fold change (Aza/veh), VPS36 (ProbeSet 11739960_a_at) / Fold change (ACY-1035/veh), VPS36 (ProbeSet 11739960_a_at) / RFU SYPL1 (11715823_x_at) / Fold change /veh SYPL1 (11715823_x_at) / RFU IGFBP7 (11715501_s_at) / Fold change /veh IGFBP7 (11715501_s_at) / RFU REEP3 (11722064_at) / Fold change /veh REEP3 (11722064_at) / RFU IGLL1 (11728026_x_at) / Fold change /veh IGLL1 (11728026_x_at): dose or concentration left out as unconfirmed. The following applies: MV-4-11 cells, 48 hours.

For `Nc1ncn([C@@H]2O[C@H](CO)[C@@H](O)[C@H]2O)c(=O)n1` [azacitidine], the “Fold change /veh C5orf56 (11738088_a_at)” value is on record as 0.98.

Source of the values: publication PMC5218480 (PLoS ONE, 2017).
